From ChEMBL document CHEMBL1158951, “Additional bioactive heptenes from Melodorum fruticosum” (1991)
≈ marks a conversion by molar mass, not a printed value.

Assays:
Type in all cases: functional
Details in all cases: read-out: ED50 (the source's name)
[1] = test system: A549; experiment: Cytotoxicity against human A549 cells
[2] = test system: MCF7; experiment: Cytotoxicity against human MCF7 cells
[3] = test system: HT-29; experiment: Cytotoxicity against human HT-29 cells
[4] = test system: SK-MEL-5; experiment: Cytotoxicity against human SK-MEL-5 cells
[5] = test system: Malme-3M; experiment: Cytotoxicity against human MALME-3M cells

CC(=O)OC(/C=C1/C=CC(=O)O1)COC(=O)c1ccccc1 (stereo unspecified) [ACETYLMELODORINOL]
EC50 [1]: 2.89 µg/mL (≈ 9.56 µM)
EC50 [2]: 1.96 µg/mL (≈ 6.48 µM)
EC50 [3]: 2.38 µg/mL (≈ 7.87 µM)
EC50 [4]: 4.21 µg/mL (≈ 13.9 µM)
EC50 [5]: 2.74 µg/mL (≈ 9.06 µM)

CCOC(=O)/C=C/C(=O)/C=C/COC(=O)c1ccccc1 [HOMOMELODIENONE]
EC50 [1]: 36.9 µg/mL (≈ 128 µM)
EC50 [2]: 25.6 µg/mL (≈ 88.8 µM)
EC50 [3]: 37.9 µg/mL (≈ 131 µM)

O=C1C=C/C(=C/C(O)COC(=O)c2ccccc2)O1 (stereo unspecified) [MELODORINOL]
EC50 [1]: 5.89 µg/mL (≈ 22.6 µM)
EC50 [2]: 1.99 µg/mL (≈ 7.65 µM)
EC50 [3]: 2.87 µg/mL (≈ 11 µM)
EC50 [4]: 3.75 µg/mL (≈ 14.4 µM)
EC50 [5]: 3.32 µg/mL (≈ 12.8 µM)

COC(=O)/C=C/C(=O)CC(O)COC(=O)c1ccccc1 (stereo unspecified)
EC50 [1]: 3.28 µg/mL (≈ 11.2 µM)
EC50 [2]: 1.92 µg/mL (≈ 6.57 µM)
EC50 [3]: 0.253 µg/mL (≈ 0.866 µM)
EC50 [4]: 1.04 µg/mL (≈ 3.56 µM)
EC50 [5]: 1.1 µg/mL (≈ 3.76 µM)

CCOC(=O)/C=C\C(=O)/C=C/COC(=O)c1ccccc1 [HOMOISOMELODIENONE]
EC50 [1]: 6.7 µg/mL (≈ 23.2 µM)
EC50 [2]: 4.26 µg/mL (≈ 14.8 µM)
EC50 [3]: 36.3 µg/mL (≈ 126 µM)
